# Test results published in patent US10526327B2, “Histone demethylase inhibitors” (CELGENE QUANTICEL RESEARCH, INC., priority 2013, dated 2020).
# pIC50: −log10 of the molar value.
# Molecular target: T1, Jarid1A (Homo sapiens, UniProt P29375)
# T1 construct: purchased BPS Bioscience 50110
# T1 sequence (P29375 1-1090): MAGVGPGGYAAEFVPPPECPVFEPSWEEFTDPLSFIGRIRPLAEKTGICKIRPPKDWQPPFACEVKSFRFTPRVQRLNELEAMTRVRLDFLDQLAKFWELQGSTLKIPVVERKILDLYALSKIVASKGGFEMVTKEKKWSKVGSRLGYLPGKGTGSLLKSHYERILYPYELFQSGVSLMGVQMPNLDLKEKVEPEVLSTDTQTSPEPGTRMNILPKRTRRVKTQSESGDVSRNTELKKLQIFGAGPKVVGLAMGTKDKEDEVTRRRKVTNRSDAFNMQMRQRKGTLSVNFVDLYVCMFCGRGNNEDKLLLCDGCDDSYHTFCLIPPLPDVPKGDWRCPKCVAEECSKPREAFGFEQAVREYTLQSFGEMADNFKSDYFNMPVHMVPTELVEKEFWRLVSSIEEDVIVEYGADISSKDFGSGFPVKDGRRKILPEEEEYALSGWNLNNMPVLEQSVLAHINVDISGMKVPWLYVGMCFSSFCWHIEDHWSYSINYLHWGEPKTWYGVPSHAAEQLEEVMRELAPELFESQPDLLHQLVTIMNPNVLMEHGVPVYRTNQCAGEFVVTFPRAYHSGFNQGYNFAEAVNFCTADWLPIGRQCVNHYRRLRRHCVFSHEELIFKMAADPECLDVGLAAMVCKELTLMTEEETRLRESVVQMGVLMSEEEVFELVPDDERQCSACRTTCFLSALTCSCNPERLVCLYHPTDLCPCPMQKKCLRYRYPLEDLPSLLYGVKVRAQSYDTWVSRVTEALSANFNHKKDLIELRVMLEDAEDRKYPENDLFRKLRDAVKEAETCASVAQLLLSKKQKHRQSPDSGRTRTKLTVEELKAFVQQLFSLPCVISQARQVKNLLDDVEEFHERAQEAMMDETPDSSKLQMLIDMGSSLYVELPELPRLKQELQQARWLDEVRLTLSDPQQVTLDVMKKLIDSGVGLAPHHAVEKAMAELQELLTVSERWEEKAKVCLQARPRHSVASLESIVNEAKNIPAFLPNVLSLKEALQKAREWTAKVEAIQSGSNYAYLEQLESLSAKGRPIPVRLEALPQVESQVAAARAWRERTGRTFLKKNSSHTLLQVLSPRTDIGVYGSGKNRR
# Test: Jarid1A in vitro enzyme inhibition assay (TR-FRET)
# Assay type: biochemical
# Excerpt: This assay determines the ability of a test compound to inhibit Jarid1A, Jarid1B, and JMJD2C demethylase activity. Baculovirus expressed Jarid1A (GenBank Accession #NM_001042603, AA1-1090) was purchased from BPS Bioscience (Cat#50110). Baculovirus expressed Jarid1B (GenBank Accession #NM_006618, AA 2-751) was purchased from BPS Bioscience (Cat #50121) or custom made by MolecularThroughput. Baculovirus expressed JMJD2C (GenBank Accession #BC143571, AA 2-372) was purchased from BPS Bioscience (Cat#50105).
# The enzymatic assay of Jarid1A activity is based upon Time Resolved-Fluorescence Resonance Energy Transfer (TR-FRET) detection. The ability of test compounds to inhibit the activity of Jarid1A was determined in 384-well plate format under the following reaction conditions: 1 nM Jarid1A, 300 nM H3K4me3-biotin labeled peptide (Anaspec cat #64357), 2 μM alpha-ketoglutaric acid in assay buffer of 50 mM HEPES, pH7.3, 0.005% Brij35, 0.5 mM TCEP, 0.2 mg/ml BSA, 50 μM sodium L-ascorbate, and 2 μM ammonium iron(II) sulfate. Reaction product was determined quantitatively by TR-FRET after the addition of detection reagent Phycolink Streptavidin-allophycocyanin (Prozyme) and Europium-anti-mono-or di-methylated histone H3 lysine 4 (H3K4me1-2) antibody (PerkinElmer) in the presence of 5 mM EDTA in LANCE detection buffer (PerkinElmer) at a final concentration of 25 nM and 1 nM, respectively.
# The assay reaction was initiated by the following: 2 μl of the mixture of 900 nM H3K4me3-biotin labeled peptide and 6 μM alpha-ketoglutaric acid with 2 μl of 11-point serial diluted inhibitor in 3% DMSO was added to each well of plate, followed by the addition of 2 μl of 3 nM Jarid1A to initiate the reaction. The reaction mixture was incubated at room temperature for 30 minutes, and terminated by the addition of 6 μl of 5 mM EDTA in LANCE detection buffer containing 50 nM Phycolink Streptavidin-allophycocyanin and 2 nM Europium-anti-H3K4me1-2 antibody. Plates were read by EnVisionMultilabel Reader in TR-FRET mode (excitation at 320 nm, emission at 615 nm and 665 nm) after 1 hour incubation at room temperature. A ratio was calculated (665/615) for each well and fitted to determine inhibition constant (IC50).
row,pIC50,SMILES
1,≥ 7.00,"OCCOc1nc(O)c2ccncc2n1 [Example 3, 2-(2-hydroxyethoxy)pyrido[3,4-d]pyrimidin-4-ol]"
2,6.00 to 7.00,"Oc1nc(OCc2ccccc2)nc2cnccc12 [Example 4, 2-phenylmethoxypyrido[3,4-d]pyrimidin-4-ol]"
3,≥ 7.00,"Oc1nc(OCC2CC2)nc2cnccc12 [Example 5, 2-(cyclopropylmethoxy)-3H-pyrido[3,4-d]pyrimidin-4-one]"
4,6.00 to 7.00,"Oc1nc(OC2CCCC2)nc2cnccc12 [Example 6, 2-cyclopentyloxy-3H-pyrido[3,4-d]pyrimidin-4-one]"
5,≥ 7.00,"CCCOc1nc(O)c2ccncc2n1 [Example 7, 2-propoxy-3H-pyrido[3,4-d]pyrimidin-4-one]"
6,≥ 7.00,"COc1nc(O)c2ccncc2n1 [Example 8, 2-methoxypyrido[3,4-d]pyrimidin-4-ol]"
7,5.00 to 6.00,"CCC(C)Oc1nc(O)c2ccncc2n1 (stereo not shown) [Example 9, 2-butan-2-yloxy-3H-pyrido[3,4-d]pyrimidin-4-one]"
8,≥ 7.00,"Oc1nc(OCCOc2ccccc2)nc2cnccc12 [Example 10, 2-(2-phenoxyethoxy)-3H-pyrido[3,4-d]pyrimidin-4-one]"
9,6.00 to 7.00,"Oc1nc(OCC2CCC2)nc2cnccc12 [Example 11, 2-(cyclobutylmethoxy)-3H-pyrido[3,4-d]pyrimidin-4-one]"
10,≥ 7.00,"Oc1nc(OCC(F)(F)F)nc2cnccc12 [Example 12, 2-(2,2,2-trifluoroethoxy)pyrido[3,4-d]pyrimidin-4-ol]"
11,≥ 7.00,"CC(=O)Nc1ccc(Oc2nc(O)c3ccncc3n2)cc1 [Example 35, N-[4-(4-hydroxypyrido[3,4-d]pyrimidin-2-yl)oxyphenyl]acetamide]"
12,≥ 7.00,"CC(C)(C)OC(=O)Nc1cccc(Oc2nc(O)c3ccncc3n2)c1 [Example 36, tert-butyl N-[3-(4-hydroxypyrido[3,4-d]pyrimidin-2-yl)oxyphenyl]carbamate]"
13,≥ 7.00,"Oc1nc(Oc2ccc(F)c(F)c2)nc2cnccc12 [Example 37, 2-(3,4-difluorophenoxy)pyrido[3,4-d]pyrimidin-4-ol]"
14,≥ 7.00,"COc1ccc(Oc2nc(O)c3ccncc3n2)cc1OC [Example 38, 2-(3,4-dimethoxyphenoxy)pyrido[3,4-d]pyrimidin-4-ol]"
15,≥ 7.00,"CC(C)c1cccc(Oc2nc(O)c3ccncc3n2)c1 [Example 39, 2-(3-propan-2-ylphenoxy)pyrido[3,4-d]pyrimidin-4-ol]"
16,≥ 7.00,"Oc1nc(Oc2cccc(F)c2)nc2cnccc12 [Example 40, 2-(3-fluorophenoxy)pyrido[3,4-d]pyrimidin-4-ol]"
17,≥ 7.00,"Oc1nc(Oc2cccc(Cl)c2)nc2cnccc12 [Example 41, 2-(3-chlorophenoxy)pyrido[3,4-d]pyrimidin-4-ol]"
18,≥ 7.00,"Oc1nc(Oc2cccc(F)c2F)nc2cnccc12 [Example 42, 2-(2,3-difluorophenoxy)pyrido[3,4-d]pyrimidin-4-ol]"
19,≥ 7.00,"COc1c(F)cc(Oc2nc(O)c3ccncc3n2)cc1F [Example 43, 2-(3,5-difluoro-4-methoxyphenoxy)pyrido[3,4-d]pyrimidin-4-ol]"
20,≥ 7.00,"COc1cccc(Oc2nc(O)c3ccncc3n2)c1 [Example 44, 2-(3-methoxyphenoxy)pyrido[3,4-d]pyrimidin-4-ol]"

row,pIC50,SMILES
1,≥ 7.00,"CCOc1c(F)cc(Oc2nc(O)c3ccncc3n2)cc1F [Example 45, 2-(4-ethoxy-3,5-difluorophenoxy)pyrido[3,4-d]pyrimidin-4-ol]"
2,≥ 7.00,"Oc1nc(Oc2ccccc2F)nc2cnccc12 [Example 46, 2-(2-fluorophenoxy)pyrido[3,4-d]pyrimidin-4-ol]"
3,≥ 7.00,"Oc1nc(Oc2ccc(F)cc2)nc2cnccc12 [Example 47, 2-(4-fluorophenoxy)pyrido[3,4-d]pyrimidin-4-ol]"
4,≥ 7.00,"COc1ccc(Oc2nc(O)c3ccncc3n2)cc1 [Example 48, 2-(4-methoxyphenoxy)pyrido[3,4-d]pyrimidin-4-ol]"
5,≥ 7.00,"Oc1nc(Oc2ccc(Cl)cc2)nc2cnccc12 [Example 49, 2-(4-chlorophenoxy)pyrido[3,4-d]pyrimidin-4-ol]"
6,≥ 7.00,"CN(C)c1cccc(Oc2nc(O)c3ccncc3n2)c1 [Example 50, 2-[3-(dimethylamino)phenoxy]pyrido[3,4-d]pyrimidin-4-ol]"
7,≥ 7.00,"Oc1nc(Oc2cccc(C(F)(F)F)c2)nc2cnccc12 [Example 52, 2-[3-(trifluoromethyl)phenoxy]pyrido[3,4-d]pyrimidin-4-ol]"
8,≥ 7.00,"COc1ccc(Oc2nc(O)c3ccncc3n2)cc1F [Example 53, 2-(3-fluoro-4-methoxyphenoxy)pyrido[3,4-d]pyrimidin-4-ol]"
9,≥ 7.00,"CCCn1cc(Oc2nc(O)c3ccncc3n2)cn1 [Example 54, 2-(1-propylpyrazol-4-yl)oxypyrido[3,4-d]pyrimidin-4-ol]"
10,≥ 7.00,"CC(C)CCn1cc(Oc2nc(O)c3ccncc3n2)cn1 [Example 55, 2-{[1-(3-methylbutyl)pyrazol-4-yl]oxy}pyrido[3,4-d]pyrimidin-4-ol]"
11,≥ 7.00,"Oc1nc(Oc2cnn(C3CCCC3)c2)nc2cnccc12 [Example 56, 2-[(1-cyclopentylpyrazol-4-yl)oxy]pyrido[3,4-d]pyrimidin-4-ol]"
12,≥ 7.00,"CCc1cccc(Oc2nc(O)c3ccncc3n2)c1 [Example 57, 2-(3-ethylphenoxy)pyrido[3,4-d]pyrimidin-4-ol]"
13,≥ 7.00,"CCCc1cccc(Oc2nc(O)c3ccncc3n2)c1 [Example 58, 2-(3-propylphenoxy)pyrido[3,4-d]pyrimidin-4-ol]"
14,≥ 7.00,"CN(C)c1ccc(Oc2nc(O)c3ccncc3n2)cc1 [Example 59, 2-[4-(dimethylamino)phenoxy]pyrido[3,4-d]pyrimidin-4-ol]"
15,≥ 7.00,O=C(c1cc(F)cc(Oc2nc(O)c3ccncc3n2)c1)N1CCOCC1 [Example 60]
16,≥ 7.00,"COCCn1ncc2ccc(Oc3nc(O)c4ccncc4n3)cc21 [Example 61, 2-{[1-(2-methoxyethyl)-1H-indazol-6-yl]oxy}pyrido[3,4-d]pyrimidin-4-ol]"
17,≥ 7.00,"CCn1cc(Oc2nc(O)c3ccncc3n2)cn1 [Example 62, 2-[(1-ethyl-1H-pyrazol-4-yl)oxy]pyrido[3,4-d]pyrimidin-4-ol]"
18,≥ 7.00,"CC(C)n1cc(Oc2nc3cnccc3c(=O)[nH]2)cn1 [Example 63, 2-{[1-(propan-2-yl)-1H-pyrazol-4-yl]oxy}pyrido[3,4-d]pyrimidin-4-ol]"
19,≥ 7.00,"COCCn1cc(Oc2nc(O)c3ccncc3n2)cn1 [Example 64, 2-{[1-(2-methoxyethyl)-1H-pyrazol-4-yl]oxy}pyrido[3,4-d]pyrimidin-4-ol]"
20,≥ 7.00,"COCCCn1cc(Oc2nc(O)c3ccncc3n2)cn1 [Example 65, 2-{[1-(3-methoxypropyl)-1H-pyrazol-4-yl]oxy}pyrido[3,4-d]pyrimidin-4-ol]"
